Data from patent EP0785211A1, “New substituted 19-nor-pregnane derivatives” (LABORATOIRE THERAMEX, priority 1996, dated 1997).
Like-named read-outs stand apart in the source and are kept apart here. Marks after values point to notes of the source that are not given here.

How the values were obtained:
[1] = biological target: T1, human T47-D cell progesterone receptor (Homo sapiens, UniProt P06401); test: Relative binding affinity to human T47-D cell progesterone receptor (competition against [3H]-ORG 2058); details: for RBA: relative binding affinity, nomegestrol acetate as reference = 100%
T1 construct: Human PR are readily available in high amounts from the T47-D cell line in culture; endogenous in cells; host or cells: T47-D human breast cancer cell line
T1 sequence (P06401 1-933): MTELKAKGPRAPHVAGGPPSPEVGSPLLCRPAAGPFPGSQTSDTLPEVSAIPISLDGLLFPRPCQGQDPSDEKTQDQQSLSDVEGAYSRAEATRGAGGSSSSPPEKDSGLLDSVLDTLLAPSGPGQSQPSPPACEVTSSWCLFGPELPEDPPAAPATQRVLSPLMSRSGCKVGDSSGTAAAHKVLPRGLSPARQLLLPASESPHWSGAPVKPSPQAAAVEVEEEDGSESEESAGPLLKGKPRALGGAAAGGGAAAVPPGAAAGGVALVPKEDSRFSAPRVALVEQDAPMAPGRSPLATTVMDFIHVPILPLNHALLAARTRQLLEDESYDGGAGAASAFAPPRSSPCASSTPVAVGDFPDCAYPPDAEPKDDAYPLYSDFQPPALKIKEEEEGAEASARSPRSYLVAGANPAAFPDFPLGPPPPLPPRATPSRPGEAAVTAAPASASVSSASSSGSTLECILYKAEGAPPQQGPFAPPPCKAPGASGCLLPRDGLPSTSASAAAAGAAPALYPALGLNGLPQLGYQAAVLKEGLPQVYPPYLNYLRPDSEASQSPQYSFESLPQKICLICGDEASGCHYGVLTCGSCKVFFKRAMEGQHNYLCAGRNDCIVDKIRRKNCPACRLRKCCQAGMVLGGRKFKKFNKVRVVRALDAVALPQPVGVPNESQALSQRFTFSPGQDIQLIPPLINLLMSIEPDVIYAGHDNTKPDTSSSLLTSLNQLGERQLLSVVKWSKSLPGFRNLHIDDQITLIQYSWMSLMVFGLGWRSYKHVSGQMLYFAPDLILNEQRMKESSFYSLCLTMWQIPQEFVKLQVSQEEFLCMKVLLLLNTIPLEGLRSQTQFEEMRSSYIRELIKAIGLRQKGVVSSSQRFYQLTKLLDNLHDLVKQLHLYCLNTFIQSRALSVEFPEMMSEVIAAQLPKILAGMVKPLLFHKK
Protocol: Relative binding affinities (RBA) for the human T47-D cell PR are determined as previously described (J. Botella, et al., J. Steroid Biochem. Molec. Biol., 1994, 50 : 41-47) using [^3H]-ORG 2058 as the labelled specific ligand (G. Fleischmann et al., Biochim. Biophys. Acta, 1978, 540 : 500-517) and nomegestrol acetate as the non-radioactive reference progestin. Competitive incubations were performed against 2 nM of [^3H]-ORG 2058 for 3 hours at 4°C with six different concentrations of non-labelled steroid, chosen between 4 and 256 nM following a 1/2^n dilution scheme. Displacement curves were fitted for each experiment, and the concentration inhibiting 50% of the specific binding of [^3H]-ORG 2058 was calculated for each curve (IC50).

[2] = tested on: uterus of estrogen-primed immature female rabbits; test: Clauberg-McPhail test by oral administration (endometrial transformation, "dentelle"); assay type: in vivo, rabbit; details: for Relative activity: relative to nomegestrol acetate = 100%; for ED50: total dose giving mean McPhail grade equal to 2, maximal administered dose 0.75 mg
Source text: The progestative activity of the compounds of formula (I) can be evaluated in two specific experimental models : the affinity for the progesterone receptor (PR) in vitro, and the endometrial tranformation of the rabbit uterus in vivo.
One specific pharmacological test has been standardized in vivo for the detection and quantitation of pseudogestagenic activity since the mid-30's : it is based on the property of the uterus of estrogen-primed immature female rabbits to respond to very slight amounts of progestin by a typical endometrial transformation into a densely packed and interlaced epithelial network called "dentelle". The original test schedule, which includes 6 days of estrogen priming (total subcutaneous dose of 30 µg/rabbit of estradiol benzoate) followed by 5 days of progestative treatment, was designed as early as 1930 by C. Clauberg, Zentr. Gynäkol. 1930, 54 : 2757-2770. The semi-quantitative scale used to grade the intensity of the microscopical appearance of the "dentelle" was set up by M.K. McPhail, J. Physiol (London), 1934, 83, 145-156. This overall Clauberg-McPhail procedure has been extensively used to screen steroids for putative progestative activity in vivo and is still part of the basic hormonal profile of any new progestin such as norgestimate (A. Phillips et al., Contraception, 1987, 36, 181-192) or desogestrel (J. Van der Vies et al.,Arzneim. Forsch./Drug Res. 1983, 33, 231-236).
The progestative potency is inversely related to the dose needed to induce a half-maximal stimulation of the "dentelle", i.e. to record a mean McPhail grade equal to 2. This ED50 is deduced for the dose-response curve and expressed in total dose/rabbit/5 days. All compounds were tested for activity only following oral administration.

[3] = tested on: immature castrated male rats; test: Residual androgenic activity: hypertrophy of ventral prostate and seminal vesicles after 10 daily administrations; assay type: in vivo, rat; details: for Seminal Vesicle / Ventral Prostate: mean ± s.e.m. of 8 animals; for androgenic potential (activity on the growth of male accessory sex organs): result in words, up to 20 mg/animal/day
Source text: The residual androgenic potential is an important feature to evaluate for any new progestin, because it is highly predictive of androgenic side-effects in women. One pharmacological model of androgenic activity has been standardized to screen steroids or related compounds in immature castrated male rats, using the hypertrophy of the ventral prostate and seminal vesicles as the endpoint, following 10 daily administrations (R.I. Dorfman, in Methods in Hormone Research, volume 2, LONDON, Academic Press, 1962 : 275-313; A.G. Hilgar et D.J. Hummel, Androgenic and Myogenic Endocrine Bioassay Data, edited by the U.S. Department of Health, Education and Welfare, […].C., 1964).
Medroxyprogesterone acetate is a 6α-methylpregnene derivative which, besides its main progestative activity, is well-known for its weak androgenic properties (M. Tausk et J. de Visser, In International Encyclopedia of Pharmacology and Therapeutics, Section 48 : Progesterone, Progestational Drugs and Antifertility Agents, volume II, OXFORD, Pergamon Press, 1972 : 35-216); it was therefore chosen as a reference compound in the testing for residual androgenic activity of test examples according to the invention.
The compounds of examples 2 and 7 were tested for residual androgenic properties in the immature castrated male rat model by oral administration (PO), in comparison with medroxyprogesterone acetate, in two different experiments (ventral prostate and seminal vesical hypertrophy), as described above; testosterone was used as a standard androgenic agent by subcutaneous injection (SC).

[4] = Table 3 experiment, SC, 0,05 mg/animal/day
[5] = Table 4 experiment, SC, 0,05 mg/animal/day

Row | Structure (SMILES) | IC50 [1] [µM] | RBA [1] [%] | Relative activity [2] [%] | ED50 [2] | further results
1 | CC(=O)O[C@]1(C(C)=O)CC[C@H]2[C@@H]3[C@H](C)[C@H](C)C4=CC(=O)CC[C@@H]4[C@H]3CC[C@@]21C [Example 11, 17α-acetoxy-6α,7α-dimethyl-3,20-dioxo-19-nor-pregna-4-ene] | 0.0255 ± 0.0053 | 64 | 132 | 0.100 mg/rabbit/5 days | –
2 | CC(=O)O[C@]1(C(C)=O)[C@H]2C[C@H]2[C@H]2[C@@H]3C=C(C)C4=CC(=O)CC[C@@H]4[C@H]3CC[C@@]21C [Example 6, 17α-acetoxy-6-methyl-15β,16β-methylene-3,20-dioxo-19-nor-pregna-4,6-diene] | 0.0211 ± 0.006 | 78 | < 18 | > 0.750 mg/rabbit/5 days | –
3 | CC(=O)O[C@]1(C(C)=O)C[C@@H](C)[C@H]2[C@@H]3C[C@H](C)C4=CC(=O)CC[C@@H]4[C@H]3CC[C@@]21C [Example 2, 17α-acetoxy-6α,15β-dimethyl-3,20-dioxo-19-nor-pregna-4-ene] | 0.0288 ± 0.0056 | 57 | 165 | 0.080 mg/rabbit/5 days | Seminal Vesicle ([3]; Table 3 experiment, PO, 20 mg/animal/day, castrated controls 10.4 ± 0.4): 12.1 ± 0.7 ns mg; Ventral Prostate ([3]; Table 3 experiment, PO, 20 mg/animal/day, castrated controls 14.6 ± 1.4): 13.0 ± 1.1 ns mg; androgenic potential (activity on the growth of male accessory sex organs) ([3]; PO): totally devoid of any activity on the growth of male accessory sex organs
4 | CCO[C@]1(C(C)=O)[C@H]2C[C@H]2[C@H]2[C@@H]3C[C@H](C)C4=CC(=O)CC[C@@H]4[C@H]3CC[C@@]21C [Example 8, 17α-ethoxy-15β,16β-methylene-6α-methyl-3,20-dioxo-19-nor-pregna-4-ene] | – | 78 | 99 | 0.133 mg/rabbit/5 days | IC50 ([1]; against 2 nM [3H]-ORG 2058, 3 hours at 4°C, mean ± s.e.m.): 0.0211 ± 0.006 µM
5 | CC(=O)OC1(C(C)=O)C2CC2C2C3C(C)C(C)C4=CC(=O)CCC4C3CCC21C (stereo not drawn) [Example 10, 17α-acetoxy-6α,7α-dimethyl-15β,16β-methylene-3,20-dioxo-19-nor-pregna-4-ene] | – | – | 22 | 0.600 mg/rabbit/5 days | –
6 | CCO[C@]1(C(C)=O)[C@H]2C[C@H]2[C@H]2[C@@H]3C=C(C)C4=CC(=O)CC[C@@H]4[C@H]3CC[C@@]21C [Example 9, 17α-ethoxy-15β,16β-methylene-6-methyl-20-oxo-19-nor-pregna-4,6-diene] | 0.0323 ± 0.0053 | 51 | – | – | –
7 | CC(=O)O[C@]1(C(C)=O)C[C@@H](C)[C@H]2[C@@H]3C=C(C)C4=CC(=O)CC[C@@H]4[C@H]3CC[C@@]21C [Example 1, 17α-acetoxy-6,15β-dimethyl-3,20-dioxo-19-nor-pregna-4,6-diene] | 0.038 ± 0.0103 | 43 | < 18 | > 0.750 mg/rabbit/5 days | –
8 | CC(=O)O[C@]1(C(C)=O)CC[C@H]2[C@@H]3C=C(C)C4=CC(=O)CC[C@@H]4[C@H]3CC[C@@]21C [Nomegestrol acetate, reference compound] | – | 100 | 100 | 0.132 ± 0.013^(a) (0.108/0.150/0.138) mg/rabbit/5 days | IC50 ([1]; against 2 nM [3H]-ORG 2058, 3 hours at 4°C, mean ± s.e.m., read-out: IC50): 0.0164 ± 0.0013 µM
9 | C[C@]12CC[C@H]3[C@@H](CCC4=CC(=O)CC[C@@]43C)[C@@H]1CC[C@@H]2O [Testosterone, reference compound] | – | – | – | – | Seminal Vesicle [3, 4]: 85.9 ± 6.8 mg; Ventral Prostate [3, 4]: 85.1 ± 5.9 mg; Seminal Vesicle [3, 5]: 90.3 ± 6.3 mg; Ventral Prostate [3, 5]: 90.4 ± 4.4 mg
10 | CC(=O)O[C@]1(C(C)=O)[C@H]2C[C@H]2[C@H]2[C@@H]3C[C@H](C)C4=CC(=O)CC[C@@H]4[C@H]3CC[C@@]21C [Example 7, 17α-acetoxy-6α-methyl-15β,16β-methylene-3,20-dioxo-19-nor-pregna-4-ene] | 0.0197 ± 0.003 | 83 | 54 | 0.245 mg/rabbit/5 days | Ventral Prostate ([3]; Table 4 experiment, PO, 20 mg/animal/day, castrated controls 12.0 ± 0.9): 16.5 ± 0.9 mg; Seminal Vesicle ([3]; Table 4 experiment, PO, 20 mg/animal/day, castrated controls 12.3 ± 0.7): 13.9 ± 0.8 ns mg; androgenic potential (activity on the growth of male accessory sex organs) ([3]; PO): very limited androgenic potential
